Key:
HEK-293T = assay: Incucyte cell viability with HEK293T; assay type: toxicity, cell-based; conditions: human, 10 µM, compound concentration 10 uM
U2OS = assay: Incucyte cell viability with U2OS; assay type: toxicity, cell-based; conditions: human, 10 µM, compound concentration 10 uM
[1] = 0 h, replicate number 2, timepoint 0 hours
[2] = 6 h, replicate number 1, timepoint 6 hours
[3] = 12 h, replicate number 1, timepoint 12 hours
[4] = 18 h, replicate number 1, timepoint 18 hours
[5] = 24 h, replicate number 1, timepoint 24 hours
[6] = 6 h, replicate number 2, timepoint 6 hours
[7] = 0 h, replicate number 1, timepoint 0 hours
[8] = 24 h, replicate number 2, timepoint 24 hours
[9] = 12 h, replicate number 2, timepoint 12 hours
[10] = 18 h, replicate number 2, timepoint 18 hours
Further: filed as whole numbers so only -1 and 0 and 1 occur.

Structure (SMILES) | Growth Rate (HEK-293T; [1]) | Growth Rate (HEK-293T; [2]) | Growth Rate (HEK-293T; [3]) | Growth Rate (HEK-293T; [4]) | Growth Rate (HEK-293T; [5]) | Growth Rate (U2OS; [2]) | Growth Rate (U2OS; [6]) | Growth Rate (U2OS; [3]) | Growth Rate (U2OS; [4]) | Growth Rate (U2OS; [5]) | Growth Rate (HEK-293T; [7]) | Growth Rate (HEK-293T; [6]) | Growth Rate (U2OS; [7]) | Growth Rate (U2OS; [1]) | Growth Rate (HEK-293T; [8]) | Growth Rate (U2OS; [9]) | Growth Rate (U2OS; [10]) | Growth Rate (U2OS; [8]) | Growth Rate (HEK-293T; [9]) | Growth Rate (HEK-293T; [10])
S=C(NCCCc1c[nH]cn1)NCCCN(Cc1ccc(Cl)c(Cl)c1)c1ccc(Br)cn1 | 0 | 0 | 0 | 0 | 0 | -1 | 0 | 0 | 0 | 0 |  |  |  |  |  |  |  |  |  | 
Cc1cc(C)c(S(=O)(=O)N(Cc2ccc(-c3cccc(S(C)(=O)=O)c3)cc2)Cc2ccc(C(F)(F)F)o2)c(C)c1 |  | 0 | 0 | 0 | 0 |  | 1 | 1 | 1 | 1 | 0 | 1 | 0 | 1 |  |  |  |  |  | 
Cl.Oc1ccc2c3c1O[C@H]1c4[nH]c5c(c4C[C@@]4(O)[C@@H](C2)N(CC2CC2)CC[C@]314)C[C@@]1(O)[C@H]2Cc3ccc(O)c4c3[C@@]1(CCN2CC1CC1)[C@H]5O4 |  | 1 | 1 | 1 | 1 | 0 |  | 1 | 1 | 1 | 0 |  | 0 |  | 0 | 0 | 0 | 0 |  | 
O=C(Nc1cccnn1)N1CCC(=Cc2cccc(Oc3ccc(C(F)(F)F)cn3)c2)CC1 | 1 | 0 | 0 | 0 | 0 | 0 |  | 0 | 0 | 0 |  |  | 0 |  |  | 1 |  |  |  | 
COc1cc(N2CCN(C)CC2)ccc1Nc1ncc2c(n1)N(C)c1ccccc1C(=O)N2C |  |  |  | 1 | 0 | 1 | 0 | 1 | 0 | 0 | 1 | 1 | 0 | 1 |  |  |  |  | 0 | 0
CCNc1cc(N[C@H]2CC[C@H](O)CC2)nc(Nc2ccc3c(ccn3Cc3ccccc3)c2)n1 |  | 0 | 0 | 0 | 0 | 0 |  | 0 | 0 | 0 |  |  | 0 |  |  |  |  |  |  | 
CCOc1cc(C(=O)N2CCC(N3CCN(C)CC3)CC2)ccc1Nc1ncc2c(n1)N(C1CCCC1)c1ccccc1C(=O)N2C | 0 | 0 | 0 | 0 | 0 | 1 |  | 0 | 0 | 0 |  |  |  | 0 |  | 1 |  |  |  | 
CN([C@@H](Cc1ccc(OS(=O)(=O)c2cccc3cnccc23)cc1)C(=O)N1CCN(c2ccccc2)CC1)S(=O)(=O)c1cccc2cnccc12 | 1 | 0 | 0 | 0 | 0 | 1 |  | 1 | 1 | 1 |  |  |  | 0 |  |  |  |  |  | 
O=C(Nc1ccc(Cl)cc1)Nc1cccc(-c2cccc(N3CCCC3)n2)c1 | 0 | 0 | 0 | 0 | 0 |  |  | 0 | 0 | 0 | 1 |  | 0 |  |  |  |  |  |  | 
CCn1c(=O)c(-c2ccc(-c3cncs3)cc2Cl)cc2cnc(Nc3ccc(N4CCN(C)CC4)cc3)nc21 |  | 0 |  |  | 1 |  |  | 0 | 0 | 0 | 0 |  |  | 1 | 0 | 1 |  |  | 0 | 1
Cc1ccc(C(=O)Nc2cccc(C(F)(F)F)c2)cc1Nc1nc(-c2cccnc2)nc2c1cnn2C |  | 0 | 0 | 0 | 0 | 0 |  | 0 | 0 | 0 | 0 |  |  |  |  |  |  |  |  | 
CCCS(=O)(=O)c1nc(NC2CC2)cc(-c2ccc3c(ccn3C3CC(C)(C)NC(C)(C)C3)c2)n1 | 0 | 0 | 0 | 0 | 0 | 0 |  | 0 | 0 | 0 |  |  |  | 0 |  |  |  |  |  | 

From ChEMBL document CHEMBL4689842, “EUbOPEN Chemogenomics Library wave 1” (2021)
